Measured values: paper PMC5837613 (Toxicological Sciences, 2017)
Each block holds one compound with its values, some of them ahead of it.

What was measured:
[1] = tested on: hiPSC CM (iCell Cardiomyocytes); test: Cellular impedance; format: cell-based, human; conditions: 3 µM, 2 h exposure; for change in beat amplitude / change in beat rate: significant = >3*SD of vehicle
FAK = FAK (Homo sapiens, UniProt Q05397); test: KinomeScan competition binding assay, FAK
RPS6KB1 = RPS6KB1 (Homo sapiens, UniProt P23443); test: KinomeScan competition binding assay, RPS6KB1
RPS6KB1, sequence (P23443 whole entry): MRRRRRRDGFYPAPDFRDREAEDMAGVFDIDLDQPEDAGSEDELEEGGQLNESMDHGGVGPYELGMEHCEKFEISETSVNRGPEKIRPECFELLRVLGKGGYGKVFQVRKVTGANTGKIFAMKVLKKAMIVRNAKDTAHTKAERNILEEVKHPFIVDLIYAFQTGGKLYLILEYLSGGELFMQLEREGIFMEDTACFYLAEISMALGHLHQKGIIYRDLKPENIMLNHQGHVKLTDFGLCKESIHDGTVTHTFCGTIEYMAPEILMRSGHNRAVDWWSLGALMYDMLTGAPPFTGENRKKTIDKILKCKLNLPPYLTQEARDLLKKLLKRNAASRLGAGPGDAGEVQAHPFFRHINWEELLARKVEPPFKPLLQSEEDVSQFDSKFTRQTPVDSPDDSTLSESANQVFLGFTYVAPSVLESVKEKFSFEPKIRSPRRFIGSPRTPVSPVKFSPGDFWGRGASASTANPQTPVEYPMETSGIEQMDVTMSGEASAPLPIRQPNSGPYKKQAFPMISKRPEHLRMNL

STK35 = STK35 (Homo sapiens, UniProt Q8TDR2); test: KinomeScan competition binding assay, STK35
STK35, sequence (Q8TDR2 whole entry): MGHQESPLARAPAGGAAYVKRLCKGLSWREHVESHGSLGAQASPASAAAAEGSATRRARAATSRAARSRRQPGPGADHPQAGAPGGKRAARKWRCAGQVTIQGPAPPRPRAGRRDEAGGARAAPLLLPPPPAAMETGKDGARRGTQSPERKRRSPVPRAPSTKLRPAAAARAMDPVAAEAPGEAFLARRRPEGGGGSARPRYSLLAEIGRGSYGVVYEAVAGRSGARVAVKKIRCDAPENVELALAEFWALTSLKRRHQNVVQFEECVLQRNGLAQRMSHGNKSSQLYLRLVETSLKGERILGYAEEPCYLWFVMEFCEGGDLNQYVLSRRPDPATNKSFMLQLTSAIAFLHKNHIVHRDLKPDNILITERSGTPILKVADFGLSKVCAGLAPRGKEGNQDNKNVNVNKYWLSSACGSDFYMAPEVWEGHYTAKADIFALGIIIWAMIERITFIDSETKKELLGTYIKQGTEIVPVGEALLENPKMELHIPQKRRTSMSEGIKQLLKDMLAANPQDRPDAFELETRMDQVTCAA

[2] = human plasma, Cmax at steady state; ref 1-28 of Supplementary Text; cited from earlier work
[3] = tested on: hiPSC CM (iCell Cardiomyocytes); test: Cellular ATP levels; format: cell-based, human; conditions: 3 µM, 24 h after compound addition

FAK, sequence (Q05397 whole entry): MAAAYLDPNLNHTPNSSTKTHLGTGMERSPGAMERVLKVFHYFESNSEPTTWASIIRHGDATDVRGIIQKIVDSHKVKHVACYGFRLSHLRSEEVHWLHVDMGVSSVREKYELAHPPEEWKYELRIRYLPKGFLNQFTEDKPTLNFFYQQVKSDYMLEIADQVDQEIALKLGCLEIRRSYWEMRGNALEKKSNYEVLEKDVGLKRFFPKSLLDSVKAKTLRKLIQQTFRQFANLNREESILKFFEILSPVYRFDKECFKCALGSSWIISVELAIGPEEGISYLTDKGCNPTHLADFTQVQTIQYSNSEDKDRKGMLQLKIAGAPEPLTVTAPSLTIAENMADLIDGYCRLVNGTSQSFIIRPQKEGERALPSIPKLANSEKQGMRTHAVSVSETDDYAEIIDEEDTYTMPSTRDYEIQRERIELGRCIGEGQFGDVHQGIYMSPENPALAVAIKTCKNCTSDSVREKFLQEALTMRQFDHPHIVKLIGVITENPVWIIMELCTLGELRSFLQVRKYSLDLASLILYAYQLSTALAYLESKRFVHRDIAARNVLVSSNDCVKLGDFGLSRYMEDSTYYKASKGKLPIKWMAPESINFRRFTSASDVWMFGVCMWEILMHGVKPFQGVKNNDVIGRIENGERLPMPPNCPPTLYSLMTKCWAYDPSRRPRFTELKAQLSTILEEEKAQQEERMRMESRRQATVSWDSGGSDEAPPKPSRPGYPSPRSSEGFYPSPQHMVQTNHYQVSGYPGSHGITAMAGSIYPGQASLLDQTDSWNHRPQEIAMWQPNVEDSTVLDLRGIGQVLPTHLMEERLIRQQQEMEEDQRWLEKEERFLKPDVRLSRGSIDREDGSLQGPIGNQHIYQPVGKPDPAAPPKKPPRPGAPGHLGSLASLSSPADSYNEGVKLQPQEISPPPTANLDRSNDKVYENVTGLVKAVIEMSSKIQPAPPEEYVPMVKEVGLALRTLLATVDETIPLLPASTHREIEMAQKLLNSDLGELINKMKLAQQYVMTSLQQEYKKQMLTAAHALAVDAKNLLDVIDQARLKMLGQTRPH

- change in beat amplitude [1]: increased amplitude
- change in beat rate [1]: independent of a change in beat rate
SMILES: Cc1[nH]nc2ccc(-c3cncc(OC[C@@H](N)Cc4ccccc4)c3)cc12 [A-674563]

- IC50 (FAK): 0.1 µM
- IC50 (RPS6KB1): 3 µM
- IC50 (STK35): > 3.2 µM
SMILES: NC(=O)Nc1cc(-c2cccc(F)c2)sc1C(=O)N[C@H]1CCCNC1 [AZD7762]

- effect on CM beating (beat rate or amplitude) [1]: induced CM beating effects
SMILES: Cc1cc2c(F)c(Oc3ncnn4cc(OC[C@@H](C)O)c(C)c34)ccc2[nH]1 [BMS-540215]

SMILES: C[C@]12O[C@H](C[C@]1(O)CO)n1c3ccccc3c3c4c(c5c6ccccc6n2c5c31)CNC4=O [CEP-701]
- change in beat amplitude [1]: decreased amplitude
- change in beat rate [1]: increased beat rate

- IC50 (FAK): 2.8 µM
- IC50 (RPS6KB1): 13.2 µM
- IC50 (STK35): 5.7 µM
SMILES: COc1cc2nccc(Oc3ccc(NC(=O)C4(C(=O)Nc5ccc(F)cc5)CC4)cc3)c2cc1OC [Cabozantinib]
- Cmaxss [2]: 2800 nM

- IC50 (STK35): > 10 µM
SMILES: Cc1cc(Nc2cc(N3CCN(C)CC3)nc(/C=C/c3ccccc3)n2)n[nH]1 [ENMD-2076]
- Cmaxss [2]: 600 to 1500 nM

- effect on CM beating (beat rate or amplitude) [1]: induced CM beating effects
- change in beat amplitude [1]: independent of a change in amplitude
- change in beat rate [1]: increased beat rate
SMILES: OCCn1cc(-c2ccc3c(c2)CC/C3=N\O)c(-c2ccncc2)n1 [GDC-0879]

- change in beat amplitude [1]: increased amplitude
- change in beat rate [1]: independent of a change in beat rate
SMILES: CCn1c(-c2nonc2N)nc2c(C#CC(C)(C)O)ncc(OC[C@H]3CCCNC3)c21 [GSK-690693]

- change in beat amplitude [1]: decreased amplitude
- change in beat rate [1]: increased beat rate
SMILES: CO[C@@H]1[C@H](N(C)C(=O)c2ccccc2)C[C@H]2O[C@]1(C)n1c3ccccc3c3c4c(c5c6ccccc6n2c5c31)C(=O)NC4 [PKC-412]

- effect on CM beating (beat rate or amplitude) [1]: no effect on CM beating
SMILES: Cc1[nH]c(/C=C2\C(=O)Nc3ccc(F)cc32)c(C)c1C(=O)NC[C@H](O)CN1CCOCC1 [SU14813]

- effect on CM beating (beat rate or amplitude) [1]: no effect on CM beating
SMILES: Cc1cnc(Nc2ccc(OCCN3CCCC3)cc2)nc1Nc1cccc(S(=O)(=O)NC(C)(C)C)c1 [TG-101348]

- IC50 (FAK): > 32 µM
- IC50 (RPS6KB1): > 32 µM
- IC50 (STK35): > 32 µM
SMILES: CNC(=O)c1cc(COc2nnc(Nc3ccc(Cl)cc3)c3ccoc23)ccn1 [Telatinib]
- Cmaxss [2]: 2000 to 3600 nM

- IC50 (FAK): 3.1 µM
- IC50 (RPS6KB1): > 3.2 µM
- IC50 (STK35): > 3.2 µM
SMILES: COc1cc2nccc(Oc3ccc(NC(=O)Nc4cc(C)on4)c(Cl)c3)c2cc1OC [Tivozanib]
- Cmaxss [2]: 200 nM

SMILES: CN[C@@H]1C[C@H]2O[C@@](C)([C@@H]1OC)n1c3ccccc3c3c4c(c5c6ccccc6n2c5c31)C(=O)NC4 [staurosporine]
- cytotoxicity (decreased cellular ATP levels and decreased cell index) [3]: induce cell death
